From patent publication US12226400B2, “Neuroprotective disruption of Kv2.1/syntaxin interaction by small molecules” (UNIVERSITY OF PITTSBURGH-OF THE COMMONWEALTH SYSTEM OF …, priority 2018, dated 2025)

What was measured:
[1] = tested on: L5B corticocollicular neurons; experiment: Slice electrophysiology, intrinsic properties of L5B corticocollicular neurons; format: cell-based, mouse; conditions: 10 min incubation in 10 μM cpd5
Protocol: (§1) Stereotaxic injections for electrophysiology. Male or female ICR mice P21-30 (Jackson Laboratory) were anesthetized with 3% isoflurane (1.5% maintenance) and placed on the stereotaxic frame (Kopf). Core body temperature was maintained at ˜37° C. with a heating pad and eyes were protected with ophthalmic ointment. Lidocaine (1%) was injected under the scalp and an incision was made into the skin at the midline to expose the skull. […] A volume of ˜0.12 μl fluorospheres was pressure injected (25 psi, 10 ms duration) from capillary pipettes (Drummond Scientific) with a Picospritzer (Parker-Hannifin). After injection, the pipette was held in the brain for 2 min before slowly withdrawing. The scalp of the mouse was closed with cyanoacrylate adhesive. Mice were injected with the non-steroidal anti-inflammatory drug carprofen at 5 mg/kg (Henry Schein Animal Health) for 24 hours prior to and 48 hours after surgery. Mice were monitored for signs of postoperative stress and pain.
Slice electrophysiology. Slice electrophysiology experiments were performed in mice at least 2 days after fluorospheres injections. Following anesthesia with isoflurane, mice were immediately decapitated. Brains were rapidly removed and coronal slices (300 μm) containing the auditory cortex were prepared in a cutting solution at 1° C. using a Vibratome (VT1200 S; Leica). For evoked EPSC recordings, the cutting solution, pH 7.4, ˜300 mOsm, contained the following (in mM): 2.5 KCl, 1.25 NaH2PO4, 25 NaHCO3, 0.5 CaCl2, 7 MgCl2, 7 Glucose, 205 sucrose, 1.3 ascorbic acid, and 3 sodium pyruvate (bubbled with 95% O2/5% CO2). For evaluation of corticocollicular neuron electrical properties, the cutting solution, pH ˜7.4, contained the following (in mM): 135 NMDG, 1 KCl, 1.2 KH2PO4, 1.5 MgCl2, 1.5 CaCl2, 20 NaHCO3, 10 D-Glucose. The slices were then transferred and incubated at 34° C. for 30 min (bubbled with 95% O2/5% CO2) prior to recording. The incubating and recording solution contained the following (in mM): 125 NaCl, 2.5 KCl, 1.25 NaH2PO4, 25 NaHCO3, 2 CaCl2, 1 MgCl2, 10 D-Glucose, 1.3 ascorbic acid, and 3 sodium pyruvate (bubbled with 95% O2/5% CO2). Slices were stored at room temperature until the time of recording. The flow rate of the ACSF was ˜1.5 ml/min, and its temperature was maintained at 34° C. using an in-line heating system (Warner). Both slice electrophysiology experiments were carried out using MultiClamp-700B amplifier equipped with Digidata-1440A A/D converter and Clampex (Molecular Devices). Data were sampled at 10 kHz and Bessel filtered at 4 kHz. Pipette capacitance was compensated and series resistance for recordings was lower than 15 MΩ and measured throughout the experiments. Recordings were excluded from further analysis if the series resistance changed by more than 15% compared to the baseline period.
All data for intrinsic properties were acquired and analyzed within the Ephus software package. Series resistance was determined in voltage-clamp mode (command potential set at −70 mV) by giving a −5 mV voltage step. […] The difference between baseline and steady-state hyperpolarized current (ΔI) was used to calculate Rinput using the following formula: Rinput=−5 mV/ΔI−Rseries. The average resting membrane potential (Vm) was calculated by holding the neuron in voltage-follower mode (current clamp, at I=0) ˜2 minutes after breaking in and averaging the membrane potential over the next 30 sec. Subthreshold and suprathreshold membrane responses in current clamp were elicited by injecting −200 to +400 pA in 50 pA increments (baseline Vm was maintained at −70 mV, by injecting the required current, if necessary). Sag was measured during the −200 pA current injection, using the formula, SAG=(Vmin−Vsteady-state)/Vsteady-state. The first resulting action potential (AP) at rheobase was analyzed for AP width. AP width was calculated as the full-width at the half-maximum amplitude of the AP. […]

[2] = tested on: layer 2/3 corticocallosal neuron AMPAR EPSCs; experiment: Slice electrophysiology, evoked AMPAR EPSCs in auditory cortex layer 2/3 corticocallosal neurons; format: cell-based, mouse
Protocol: as §1, with “Mice were injected with the non-steroidal anti-inflammatory drug carprofen at 5 mg/kg (Henry Schein Animal Health) for 24 hours prior to and 48 hours after surgery.” left out
Slice electrophysiology. […] Pipette capacitance was compensated and series resistance for recordings was lower than 15 MΩ and measured throughout the experiments. […]
To evoke AMPAR EPSCs, auditory cortex layer 2/3 neurons were stimulated locally with an Isoflex stimulator (AMPI), through a glass theta electrode containing ACSF, by a single 0.15 ms duration electrical pulse every 30 sec. AMPAR EPSCs were recorded in voltage clamp mode at −70 mV (peak values were averaged over a 0.3 ms time window). […]

[3] = tested on: primary rat cortical neuron cultures; experiment: LDH toxicity assay screening for innate toxicity; format: cell-based; conditions: up to 30 μM for 24 hr
[4] = tested on: rat primary culture cortical neurons; experiment: TBOA excitotoxicity assay (LDH release) in cortical neuron cultures; format: cell-based
Protocol: All animal protocols described here and below were approved by the Institutional Animal Care and Use Committee of the University of Pittsburgh School of Medicine. Cortical neurons were prepared from embryonic day 16-17 rats of either sex. Pregnant donor rats (Charles River Laboratories) were killed by gradual CO2 inhalation, an American Veterinary Medical Association approved protocol (Leary et al., 2013). Cortices were dissociated with trypsin, and plated at 670,000 cells per well on poly-L-ornithine glass coverslips in six-well plates. Non-neuronal cell proliferation was inhibited with 1-2 μM cytosine arabinoside at 15 days in vitro (DIV). All cortical culture experiments shown here were performed on 18-25 DIV cultures.
DL-threo-β-benzyloxaspartate (TBOA; Tocris Bioscience) excitotoxicity assays were performed on cortical culture coverslips transferred into 24-well plates containing 10 mM HEPES, 0.01% bovine serum albumin (BSA)-supplemented MEM without phenol red (MHB). […] Following this exposure, external medium was collected for LDH colorimetric measurements using a toxicity kit (Sigma-Aldrich), as previously described 12. Each experiment contained three replicates of four conditions (with/without TBOA, with/without treatment). Relative toxicity was quantified as the LDH ratio of TBOA-treated over vehicle control values within each experiment. […]

COc1ccc(CNC(=O)Nc2cccc(-c3nc4ccccc4s3)c2)cc1OC [cpd5, 3-[3-(1,3-benzothiazol-2-yl)phenyl]-1-[(3,4-dimethoxyphenyl)methyl]urea]
action potential threshold [1]: no significant effect | action potential width [1]: no significant effect | firing rate [1]: no significant effect | input resistance [1]: lack of significant effect | resting membrane potential [1]: lack of significant effect | sag ratio (V2/V1) [1]: lack of significant effect | AMPAR EPSCs amplitude normalized to control ([2]; 10 μM cpd5, p=0.153): 97.6±0.9% | threshold, amplitude or duration of evoked synaptic potentials ([2]; Cpd5 10 μM, cortical layer 2/3 projection neurons, acute slices): No significant differences | innate toxicity (LDH) [3]: no innate toxicity | innate toxicity (LDH) ([3]; listed as Cpd5): No neurotoxicity was observed | TBOA toxicity (neuroprotection) ([4]; 10 μM Cpd5, pre-loading 1 hr and co-incubation, overnight TBOA 60 μM): significantly diminished TBOA toxicity | relative toxicity (LDH ratio of TBOA-treated over vehicle control) ([4]; 10 μM compound, 1 hr preincubation and coincubation, 75 μM TBOA, 24 hr, mean±SEM): 1.84±0.42
